Results from patent US9358247B2, “Methods and compositions for promoting activity of anti-cancer therapies” (Oncology Research International Limited, priority 2006, dated 2016).

Assays:
LNCap cell line = experiment: Cancer cell growth inhibition, SRB dye assay (single agents and 50:50 IC50 mixtures); type: cell-based, human
Method: Cancer cells were seeded the day before application of drug in triplicate or quadruplicate in 96-well plates, allowed to grow in the presence of drug for 6 days before cell growth relative to untreated control wells was determined with a dye assay. Cells were seeded in triplicate or quadruplicate at 3-4,000 per microtitre well in 90 μl of RPMI culture medium/10% foetal calf serum/penicillin, streptomycin mix, treated with 10 μl of drug (prepared in a dilution plate at 10× concentration required), and allowed to grow until the controls were nearly confluent (6 days). SRB: Plates were washed with PBS, fixed with methylated spirits, washed with tap water and stained with 50 μL/well of SRB solution (sulforhodamine, 0.4% in 1% acetic acid), followed by washing with tap water and 1% acetic acid, solubilisation in Tris and absorbance read at 564 nm in an ELISA reader. Data was collected using ELISA plate reader software—SOFTmax PRO3.1.2, then imported into EXCEL. The mean and SD of replicates were calculated as a % of control, after subtraction of the blank value (wells with no cells). A graph was plotted of % control vs dose of agent and IC50 (half maximal inhibitory concentration) values determined. […] The cells were allowed to grow until the controls were nearly confluent after 5-6 days. Plates were then washed with PBS, fixed in ethanol and stained with 50 μL/well of SRB solution (sulforhodamine, 0.4% in 1% acetic acid), followed by washing with 1% acetic acid and solubilisation in Tris. The absorbance was read at 564 nm using an ELISA reader. […] Cambridge University Press). […] The inhibitory data from each mixture was used to determine an IC50 of IC50 value, where the concentrations used were the Multiplying Factor values. In order to determine the actual IC50 contribution of each component in the two-component mixture, the IC50 of IC50 value was multiplied by the IC50 of the individual component. This can then be used to determine the reduction in IC50 contribution (ie, reduction in dose) of the chemotherapeutic agent due to the presence of the steroid saponin in the mixture. A simpler way of determining the reduction in dose is to use the following simple formula: […]

HT29 human cells = experiment: In vivo tumour volume, HT29 cells subcutaneously introduced into mice, 5-fluorouracil and deltonin; design: species or system Balb/c nude female mice
Excerpt: 5-Fluorouracil (5FU) is the principal chemotherapeutic drug used in treating colon cancer; it is most commonly co-administered with other chemotherapeutic agents. This study compared the co-administration of 5-fluoruracil and deltonin, with administration of mono-administration of both 5-fluorourcil and deltonin.
72 female Balb/c nude female mice were microchipped, weighed and randomised based on body weight into 8 groups with 9 mice per group. […]
HT29 human […] carcinoma cells were cultured in RPMI1640 cell culture medium, which was supplemented with 10% FBS and penicillin-streptomycin (50 IU/mL final concentration). The cells were harvested by trypsinisation, washed twice in HBSS and counted. The cells were then resuspended in HBSS and adjusted to a final volume containing 2×10^7 cells/mL. For inoculation, the needle was introduced through the skin into the subcutaneous space just below the right shoulder, where 100 μL of cells (2×10^6) were discharged.
When the tumour volumes had reached an average of greater than 200 mm^3, treatment was started (Day 0). Tumour volumes were measured 3-times weekly, and determined according to the formula: V(mm^3)=length×diameter^2×π/6
Treatment was continued for 17 days. The mean tumour volumes for each dosage regime are given in Table 24 and are presented graphically in FIG. 1: […]

K562 cell line = experiment: Cancer cell growth inhibition, SRB dye assay (single agents and 50:50 IC50 mixtures); type: cell-based, human; details: Homo sapiens, 144 h, Example 6, value used to make up 50:50 IC50 mixtures, read-out: IC50 values used in assay
Method: Cancer cells were seeded the day before application of drug in triplicate or quadruplicate in 96-well plates, allowed to grow in the presence of drug for 6 days before cell growth relative to untreated control wells was determined with a dye assay.
Cells were seeded in triplicate or quadruplicate at 3-4,000 per microtitre well in 90 μl of RPMI culture medium/10% foetal calf serum/penicillin, streptomycin mix, treated with 10 μl of drug (prepared in a dilution plate at 10× concentration required), and allowed to grow until the controls were nearly confluent (6 days).
SRB: Plates were washed with PBS, fixed with methylated spirits, washed with tap water and stained with 50 μL/well of SRB solution (sulforhodamine, 0.4% in 1% acetic acid), followed by washing with tap water and 1% acetic acid, solubilisation in Tris and absorbance read at 564 nm in an ELISA reader.
Data was collected using ELISA plate reader software—SOFTmax PRO3.1.2, then imported into EXCEL. The mean and SD of replicates were calculated as a % of control, after subtraction of the blank value (wells with no cells). A graph was plotted of % control vs dose of agent and IC50 (half maximal inhibitory concentration) values determined.
Tumour cells were seeded in duplicate in 96-well plates at 2-5,000 per microtitre well containing RPMI culture medium/10% foetal calf serum. The cells were allowed to grow until the controls were nearly confluent after 5-6 days. Plates were then washed with PBS, fixed in ethanol and stained with 50 μL/well of SRB solution (sulforhodamine, 0.4% in 1% acetic acid), followed by washing with 1% acetic acid and solubilisation in Tris. The absorbance was read at 564 nm using an ELISA reader.
The IC50, or concentration required to inhibit cell growth by 50%, was determined from the percentage inhibition versus concentration data using the probit calculation methods of Finney (Finney D J (1971). Probit Analysis. 3rd Edition. Cambridge University Press).
The inhibitory data from each mixture was used to determine an IC50 of IC50 value, where the concentrations used were the Multiplying Factor values. In order to determine the actual IC50 contribution of each component in the two-component mixture, the IC50 of IC50 value was multiplied by the IC50 of the individual component. This can then be used to determine the reduction in IC50 contribution (ie, reduction in dose) of the chemotherapeutic agent due to the presence of the steroid saponin in the mixture. A simpler way of determining the reduction in dose is to use the following simple formula: […]
The cell seeding and ELISA plate methodology of Example 2 were used for determining inhibition of the K562 cell line.

Structure (SMILES): C[C@@H]1CC[C@@]2(OC1)O[C@H]1C[C@H]3[C@@H]4CC=C5C[C@@H](O[C@@H]6O[C@H](CO)[C@@H](O[C@@H]7O[C@H](CO)[C@@H](O)[C@H](O)[C@H]7O)[C@H](O)[C@H]6O[C@@H]6O[C@@H](C)[C@H](O)[C@@H](O)[C@H]6O)CC[C@]5(C)[C@H]4CC[C@]3(C)[C@H]1[C@@H]2C [Deltonin, diosgenin Rha2, [Glc4], Glc]
- Vincristine Dose Reduction (LNCap cell line; 50:50 IC50 mixture vs vincristine alone, Example 3): consistent reduction in dosage
- IC50 (LNCap cell line; Homo sapiens, 144 h, Example 3, value used to make up 50:50 IC50 mixtures, read-out: IC50 values used in assay): 1 µM
- Mean tumour volume (HT29 human cells; Deltonin 1.65 mg/kg daily, Day 0): 236 mm^3
- Mean tumour volume (HT29 human cells; Deltonin 1.65 mg/kg daily, Day 2): 260 mm^3
- Mean tumour volume (HT29 human cells; Deltonin 1.65 mg/kg daily, Day 4): 299 mm^3
- Mean tumour volume (HT29 human cells; Deltonin 1.65 mg/kg daily, Day 7): 294 mm^3
- Mean tumour volume (HT29 human cells; Deltonin 1.65 mg/kg daily, Day 9): 350 mm^3
- Mean tumour volume (HT29 human cells; Deltonin 1.65 mg/kg daily, Day 11): 462 mm^3
- Mean tumour volume (HT29 human cells; Deltonin 1.65 mg/kg daily, Day 14): 594 mm^3
- Mean tumour volume (HT29 human cells; Deltonin 1.65 mg/kg daily, Day 16): 644 mm^3
- Mean tumour volume (HT29 human cells; Deltonin 1.65 mg/kg daily, Day 18): 776 mm^3
- Mean tumour volume (HT29 human cells; Deltonin 3.3 mg/kg daily, Day 0): 236 mm^3
- Mean tumour volume (HT29 human cells; Deltonin 3.3 mg/kg daily, Day 2): 242 mm^3
- Mean tumour volume (HT29 human cells; Deltonin 3.3 mg/kg daily, Day 4): 271 mm^3
- Mean tumour volume (HT29 human cells; Deltonin 3.3 mg/kg daily, Day 7): 331 mm^3
- Mean tumour volume (HT29 human cells; Deltonin 3.3 mg/kg daily, Day 9): 413 mm^3
- Mean tumour volume (HT29 human cells; Deltonin 3.3 mg/kg daily, Day 11): 489 mm^3
- Mean tumour volume (HT29 human cells; Deltonin 3.3 mg/kg daily, Day 14): 558 mm^3
- Mean tumour volume (HT29 human cells; Deltonin 3.3 mg/kg daily, Day 16): 742 mm^3
- Mean tumour volume (HT29 human cells; Deltonin 3.3 mg/kg daily, Day 18): 842 mm^3
- Mean tumour volume (HT29 human cells; Deltonin 6.6 mg/kg daily, Day 0): 235 mm^3
- Mean tumour volume (HT29 human cells; Deltonin 6.6 mg/kg daily, Day 2): 233 mm^3
- Mean tumour volume (HT29 human cells; Deltonin 6.6 mg/kg daily, Day 4): 265 mm^3
- Mean tumour volume (HT29 human cells; Deltonin 6.6 mg/kg daily, Day 7): 310 mm^3
- Mean tumour volume (HT29 human cells; Deltonin 6.6 mg/kg daily, Day 9): 399 mm^3
- Mean tumour volume (HT29 human cells; Deltonin 6.6 mg/kg daily, Day 11): 490 mm^3
- Mean tumour volume (HT29 human cells; Deltonin 6.6 mg/kg daily, Day 14): 588 mm^3
- Mean tumour volume (HT29 human cells; Deltonin 6.6 mg/kg daily, Day 16): 671 mm^3
- Mean tumour volume (HT29 human cells; Deltonin 6.6 mg/kg daily, Day 18): 692 mm^3
- IC50 (K562 cell line): 1 µM
